Test results from publication PMC8669121 (Epigenetics Insights, 2021).

Biological target: T1, HDAC8 (histone deacetylase 8) (Homo sapiens, UniProt Q9BY41)
T1 sequence (Q9BY41 1-377): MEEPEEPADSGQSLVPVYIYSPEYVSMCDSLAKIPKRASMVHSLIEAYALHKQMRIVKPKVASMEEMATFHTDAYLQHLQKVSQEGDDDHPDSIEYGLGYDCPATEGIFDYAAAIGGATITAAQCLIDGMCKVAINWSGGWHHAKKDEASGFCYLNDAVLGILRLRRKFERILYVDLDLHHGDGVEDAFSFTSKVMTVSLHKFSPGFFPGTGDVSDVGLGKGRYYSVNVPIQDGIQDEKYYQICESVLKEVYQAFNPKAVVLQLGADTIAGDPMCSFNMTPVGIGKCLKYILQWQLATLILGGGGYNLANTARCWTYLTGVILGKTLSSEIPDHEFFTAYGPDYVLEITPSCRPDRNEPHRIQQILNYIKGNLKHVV
Assay: Fluor de Lys fluorogenic deacetylase inhibition assay with AcRHKK
Assay type: biochemical

| SMILES | Ki |
| --- | --- |
| CCCCCC(=O)O [Hexanoic acid] | 2.35 ± 0.341 mM |
| CCCCCCCCCC(=O)O [Decanoic acid] | 4.48 ± 0.221 mM |
